Values quoted from earlier work in patent publication US4878891A, “Method for eradicating infectious biological contaminants in body tissues” (Baylor Research Foundation, priority 1987, dated 1989).

Legend:
[1] = system: tumor cells
[2] = system: cutaneous T-cell lymphoma; details: oral; blood fraction exposed to ultraviolet A
[3] = system: viral diseases
[4] = system: tumor; details: injected; several types of tumor induced in mice
[5] = system: malignant tumors; details: patients given large doses; ultraviolet light

For `Cc1cn([C@H]2C[C@H](N=[N+]=[N-])[C@@H](CO)O2)c(=O)[nH]c1=O` [3-deoxy-3'-azidothymidine (AZT), 3-deoxy-3'-azidothymidine], the “preventing the proliferation of tumor cells” value [1] is given as “totally ineffective”.
In the case of `COc1c2occc2cc2ccc(=O)oc12` [8-methoxypsoralen], the “control of cutaneous T-cell lymphoma activity” value [2] is given as “could be controlled”.
In the case of `CC[C@]1(O)C[C@H]2CN(CCc3c([nH]c4ccccc34)[C@@](C(=O)OC)(c3cc4c(cc3OC)N(C=O)[C@H]3[C@@](O)(C(=O)OC)[C@H](OC(C)=O)[C@]5(CC)C=CCN6CC[C@]43[C@@H]65)C2)C1` [Vincristine], the “treatment of viral diseases” value [3] is listed as “ineffective”.
For `CC1=C(CCC(=O)O)c2cc3[nH]c(cc4nc(cc5[nH]c(cc1n2)c(C)c5C(C)O)C(C)=C4C(C)O)c(C)c3CCC(=O)O` (centres unmarked) [hematoporphyrin], the localization in tumors [4] is listed as “localized and fluoresced in several types of tumor” and the “red fluorescence in malignant tumors” value [5] is listed as “red fluorescence”.
